{
  "source": "patent US8420777B2",
  "about": "“Compounds that inhibit Hsp90 protein-protein interactions with IAP proteins” (University of Massachusetts, priority 2004, dated 2013)",
  "key": {"[1]": {"system": "DU145, PC3, HeLa tumor cell lines", "assay": "MTT colorimetric viability assay, tumor cell lines", "type": "cell-based", "conditions": "increasing concentrations, 24 hours", "experimental": "(§1) FIGS. 22A and 22B compares the effect of P31 (SEQ ID NO:19) or P33 (SEQ ID NO:25) on apoptosis of tumor cell lines (FIG. 22A) and normal cell lines (FIG. 22B). The following tumor cell lines DU145 (prostate cancer, circles), PC3 (prostate cancer, triangles), or HeLa (cervical carcinoma, squares) were treated with the indicated increasing concentrations of P31 peptide (solid symbols) or control P33 peptide (open symbols), harvested after 24 hours, and analyzed for cell viability using an MTT colorimetric assay. For normal cell types (right panel), HFF (human foreskin fibroblasts, squares), HGF (human fibroblasts, triangles) or WS-1 (human epithelial cells, circles) were treated with P31 (solid symbols) or control scrambled peptide P33, harvested after 24 hours and analyzed for overall cell viability by MTT colorimetric assay. All cell lines were from ATCC."}, "[2]": {"biological_target": "T1, N-terminus of Hsp90 (Homo sapiens, UniProt P07900, S63T)", "T1 construct": "GST (N); made in house; host or cells: E. coli", "assay": "ELISA of immobilized peptide with Hsp90 fragments", "type": "binding", "conditions": "compared to P33 peptide", "experimental": "ELISA experiments were performed by immobilizing recombinant Survivin (r-Survivin) ([…]) or recombinant Hsp90 (r-Hsp90) (10 μg/ml) on plastic microtiter wells (Immulon™-2, Dynatech Laboratories, Chantilly, Va.) using bicarbonate buffer, pH 9.5 (100 μl/well) for 18 hours at 4° C. Bound protein was blocked with 3% gelatin for 1 hour at 37° C., rinsed with washing buffer (TBS pH 7.4, 0.1% Tween™, 0.1% BSA) and incubated for 1 hour at 37° C. with different concentrations of a test protein to determine if the test protein bound the immobilized protein.\nNucleotide sequences encoding full length Hsp90α (SEQ ID NO:21; amino acids 1-732) or three fragments: N-Hsp90 (amino acids 1-272 of SEQ ID NO:21), M-Hsp90, (amino acids 273-617 of SEQ ID NO:21), and C-Hsp90 (amino acids 629-732 of SEQ ID NO:21) were cloned by PCR in pGex-4T3 (Pharmacia Biotech.) and pFLAG-CMV 6c (Sigma) using the BamHI cloning sites. GST fusions of full length Hsp90, or individual Hsp90 fragments were expressed in E. coli and bound to glutathione beads (Sigma). Purified recombinant Survivin devoid of the GST frame was obtained as described in Example 2.\nFIGS. 24A and 24B identify the location of P31 peptide's binding site as the N-terminus domain of Hsp90. […] After washing, binding of the individual Hsp90 fragments to the immobilized peptides was detected with an antibody to Hsp90. […]"}, "[3]": {"biological_target": "T2, survivin-Hsp90 (Homo sapiens, UniProt P07900, S63T)", "T2 construct": "GST-Hsp90 (amino acids 1-732); GST (N); made in house; host or cells: E. coli", "assay": "ELISA inhibition of recombinant survivin binding to Hsp90", "text": "FIG. 31 is a graph depicting Hsp90 binding by Survivin peptides, measured by ELISA. Data are the mean±S.D. of two independent experiments."}, "[4]": {"system": "HeLa cells", "assay": "Multiparametric flow cytometry of caspase activity and membrane integrity", "type": "cell-based, Human", "conditions": "increasing concentrations, 24 hours", "experimental": "For multiparametric analysis of caspase-dependent cell death and loss of plasma membrane integrity, HeLa, MCF-7, or genetically engineered HCT116 cells (obtained from ATCC) were loaded with increasing concentrations of cell permeable control scrambled peptide or the Survivin peptide, harvested after culturing for 24 hours at 37° C., and analyzed for cell viability (propidium iodide, red channel) and active caspase-3 activity (CaspaTag™ from Intergen, Purchase, N.Y., green channel) by flow cytometry.\nCells were harvested after 24 hours of incubation with peptide and simultaneously analyzed for caspase activity by DEVDase activity (X-axis, green fluorescence) and cell membrane integrity by propidium iodide staining (Y-axis, red fluorescence). Cells in the upper right quadrant correspond to the population with elevated caspase activity and loss of cell membrane integrity (apoptotic)."}, "[5]": {"system": "U937, K562, HL60, THP1 AML cell lines", "assay": "MTT cell viability in AML cell lines", "type": "cell-based, human", "experimental": "FIG. 30 is a graph depicting killing activity of survivin K79-G83 in AML cells. The indicated human AML cell lines (U937, K562, HL60, and THP1) were incubated with scrambled (SEQ ID NO:28) or Survivin (SEQ ID NO:20) peptides and evaluated for cell viability by MTT.\nThe effect of the K79-G83 Survivin peptide was characterized in more detail for anti-tumor activity in AML. The K79-L87 (SEQ ID NO:19) and K79-G83 peptides (SEQ ID NO:20) were incubated with AML cells, and cell viability was measured using MTT."}, "[6]": {"system": "HeLa cells", "assay": "Apoptosis by hypodiploid DNA content, propidium iodide flow cytometry", "type": "cell-based, Human", "conditions": "24 hours", "experimental": "For determination of apoptosis by hypodiploid DNA content, various tumor cell lines were incubated with increasing concentrations of the cell permeable control scrambled (SEQ ID NO:25) or Survivin peptide (SEQ ID NO:19), harvested after 24 hours (floaters plus attached cells) fixed in 70% ethanol, and stained with 10 μg/ml propidium iodide plus 100 μg/ml RNAse A and 0.05% Triton™ X-100 in PBS, pH 7.4. Cultures were analyzed for DNA content by flow cytometry. For colorimetric quantification of cell viability, an MTT assay was used. Various tumor cell lines were incubated with increasing concentrations of the cell permeable retro-inverso control scrambled P4 or the Survivin-specific P3 peptide, incubated for 24 hours at 37° C. washed twice with Bruffs Media, and 4,5-dimethylthiazol-2-yl)-2,5-diphenyltetrazolium bromide (MTT) (Sigma, St. Louis, Mo.) was added at 5 mg/ml. Decrease in cell viability was analyzed for loss of colorimetric absorption at OD405.\nHeLa cells were incubated with the indicated increasing concentrations of the cell permeable Control (scrambled) or Survivin peptide, harvested after 24 hours at 37° C., and analyzed by hypodiploid DNA content by propidium iodide staining and flow cytometry.\nHeLa cells were incubated with chemotherapeutic drugs Taxol™ (10 μM) or adriamycin (300 nM), or cell permeable control peptide or the Survivin peptide, harvested after 24 hours, and analyzed for induction of apoptosis by hypodiploid DNA content by flow cytometry."}, "[7]": {"system": "HFF, HGF, WS-1 normal cells", "assay": "MTT colorimetric viability assay, normal cell types", "type": "cell-based, human", "conditions": "24 hours", "experimental": "as §1"}},
  "data": [
    {"sequence": "RQIKIWFQNRRMKWKKKHSSGCAFL (Synthetically generated peptide) [P31]", "values": [
      {"measurement": "cell death in cancer cell lines (MTT)", "setting": "[1]", "value": "effectively induced cell death in all three cancer cell lines"},
      {"measurement": "binding to the N-terminus of Hsp90 (OD405)", "setting": "[2]", "value": "bound specifically"},
      {"measurement": "inhibition of binding of recombinant survivin to Hsp90", "setting": "[3]", "value": "inhibited the binding of recombinant survivin to Hsp90 in a dose-dependent manner"},
      {"measurement": "cell death (caspase activity and loss of plasma membrane integrity)", "setting": "[4]", "value": "induces cell death more efficiently than scrambled control peptide"},
      {"measurement": "cell viability (MTT), killing of AML cell lines", "setting": "[5]", "value": "efficiently killed all AML cell lines tested"},
      {"measurement": "cell viability reflected by hypodiploid DNA content", "setting": "[6]; increasing concentrations, 37° C.", "value": "massive loss of cell viability"},
      {"measurement": "cell population with hypodiploid DNA content (apoptotic)", "setting": "[6]; peptides, comparison with chemotherapeutic drugs", "value": "results in the appearance of a large cell population with hypodiploid DNA content"},
      {"measurement": "cell death in normal cell types (MTT)", "setting": "[7]", "value": "did not induce cell death in any of the three normal cell types"}
    ]}
  ]
}
